Each block holds one compound with its values, some of them ahead of it. Calls of active or inactive are those of the source. The rule behind the calls is not given here.
Assays:
[1] = Metabolic stability in human liver microsome assessed as half life measured upto 45 mins in presence of NADPH by LC-MS/MS analysis; format: ADME; settings: liver microsomes
[2] = Metabolic stability in human liver microsome assessed as intrinsic clearance measured upto 45 mins in presence of NADPH by LC-MS/MS analysis; format: ADME; settings: liver microsomes, read-out: CLH
[3] = Antioxidant activity assessed as DPPH radical scavenging activity at 10 uM by spectrophotometric analysis relative to control; format: functional
[4] = test system: RAW264.7; test: Antiinflammatory activity in LPS-induced mouse RAW264.7 cells assessed as inhibition of TNF-alpha production at 2.5 to 10 uM pretreated with compound for 1 hr followed by LPS-stimulation and measured after 12 hrs by ELISA analysis; format: functional, cell-based; settings: dose 2.5-10 µM, time 13.0 hrs
[5] = molecular target: Phosphodiesterase 4 (Homo sapiens, UniProt P27815+Q08499+Q07343+Q08493); test: Inhibition of PDE4 (unknown origin) using fluorescein-cAMP as substrate incubated for 45 mins by fluorescence polarization assay; format: protein assay
[6] = test system: RAW264.7; test: Cytotoxicity against LPS-induced mouse RAW264.7 cells assessed as reduction in cell viability at 2.5 to 10 uM measured after 12 hrs by CCK-8 assay; format: toxicity, cell-based; settings: raw264.7, 12 h, dose 2.5-10 µM
[7] = Antioxidant activity assessed as DPPH radical scavenging activity by spectrophotometric analysis; format: functional
[8] = species on record: Mus musculus; test: Antioxidant activity in Fe2+-induced mouse assessed as inhibition of MDA production in lung homogenate at 250 to 1000 uM incubated for 60 mins; format: functional; settings: dose 250-1000 µM
[9] = test system: Mus musculus; test: Antiinflammatory activity in LPS-induced ICR mouse model assessed as reduction in TNF-alpha production in serum at 10 mg/kg, ip pretreated with compound for 1 hr followed by LPS-induction and measured after 60 mins ny ELISA analysis; format: functional; set-up: scale not given: the % may be the effect or the level left; settings: time 2 hrs
[10] = Metal chelating activity assessed as Fe3+-reducing capacity at 0.006 to 0.2 mM incubated for 30 mins by spectrophotometry analysis; settings: dose 0.006-0.2 mM
[11] = test system: Mus musculus; test: Antiinflammatory activity in LPS-induced ICR mouse model assessed as reduction in TNF-alpha production in serum at 100 mg/kg, ip pretreated with compound for 1 hr followed by LPS-induction and measured after 60 mins ny ELISA analysis; format: functional; set-up: scale not given: the % may be the effect or the level left; settings: time 2 hrs
[12] = test system: Mus musculus; test: Antiinflammatory activity in LPS-induced ICR mouse model assessed as reduction in TNF-alpha production in serum at 50 mg/kg, ip pretreated with compound for 1 hr followed by LPS-induction and measured after 60 mins ny ELISA analysis; format: functional; set-up: scale not given: the % may be the effect or the level left; settings: time 2 hrs
[13] = Metal chelating activity assessed as Fe2+-complex formation capacity at 0.1 to 1 mM by spectrophotometry analysis; settings: dose 0.1-1 mM

- half-life [1]: 31.1 min
- CLint scaled [2]: 56 mL/min/kg
Compound: O=C(c1ccc(F)cc1)C1CCN(CCn2c(=O)[nH]c3ccccc3c2=O)CC1 [KETANSERIN]

Compound: COc1ccc(/C=C/C(=O)c2ccc(O)cc2)cc1OCC1CC1
- Activity [3]: inactive

Compound: COc1ccc(/C=C2\COc3cc(O)ccc3C2=O)cc1OCC1CC1
- Activity [3]: inactive

- IC50 [5]: 1.45 µM
- IC50 [7]: 6.2 µM
Compound: CCOc1cc(/C=C/C(=O)c2ccc(O)c(O)c2)ccc1OC
- Activity [4]: Active
- Activity [6]: Non-Toxic
- Activity [8]: Active

Compound: CC1=NN(c2ccccc2)C(=O)C1
- Activity [3]: 23.6%

Compound: COc1cc(/C=C2\COc3cc(O)ccc3C2=O)ccc1O
- Activity [3]: inactive

Compound: COc1ccc(/C=C/C(=O)c2ccc(O)cc2)cc1OC
- Activity [3]: inactive

Compound: COc1ccc(/C=C2\COc3cc(O)ccc3C2=O)cc1OC
- Activity [3]: inactive

Compound: COc1ccc(/C=C2\COc3cc(O)ccc3C2=O)cc1O
- Activity [3]: inactive

Compound: COc1ccc2c(c1)OC/C(=C\c1ccc(O)c(O)c1)C2=O
- Activity [3]: 49.6%

- IC50 [5]: 2.78 µM
- IC50 [7]: 10.9 µM
Compound: COc1ccc(/C=C/C(=O)c2ccc(O)c(O)c2)cc1OC
- Activity [4]: Active
- Activity [6]: Non-Toxic
- Activity [8]: Active

Compound: COc1ccc(C2CNC(=O)C2)cc1OC1CCCC1 (stereo not drawn) [ROLIPRAM]
- Activity [9]: 55.1%

Compound: COc1ccc2c(c1)OC/C(=C\c1ccc(O)c(OC)c1)C2=O
- Activity [3]: inactive

Compound: COc1ccc(/C=C2\Oc3cc(O)ccc3C2=O)cc1OC
- Activity [3]: inactive

- IC50 [5]: 1.56 µM
- Activity [10]: Active
- half-life [1]: 48 min
- CLint scaled [2]: 36.2 mL/min/kg
- IC50 [7]: 6.97 µM
- Activity [13]: Active
Compound: COc1ccc(/C=C/C(=O)c2ccc(O)c(O)c2)cc1OCC1CC1
- Activity [4]: Active
- Activity [11]: 54.7%
- Activity [6]: Non-Toxic
- Activity [12]: 20.2%
- Activity [8]: Active

Compound: COc1ccc(/C=C2\Oc3cc(O)ccc3C2=O)cc1OCC1CC1
- Activity [3]: inactive

Compound: O=C(/C=C/c1ccc(O)c(O)c1)c1ccc(O)cc1
- Activity [3]: 60.4%

Compound: O=C1/C(=C/c2ccc(O)c(O)c2)Oc2cc(O)ccc21
- Activity [3]: 30.2%

- IC50 [5]: 1.53 µM
- IC50 [7]: 6.36 µM
Compound: COc1ccc(/C=C/C(=O)c2ccc(O)c(O)c2)cc1OC(C)C
- Activity [4]: Active
- Activity [6]: Non-Toxic
- Activity [8]: Active

Compound: O=C1/C(=C/c2ccc(O)c(O)c2)COc2cc(O)ccc21
- Activity [3]: 48.3%

- IC50 [5]: 1.82 µM
- IC50 [7]: 5.95 µM
Compound: COc1ccc(/C=C/C(=O)c2ccc(O)c(O)c2)cc1OC1CCCC1
- Activity [4]: Active
- Activity [6]: Non-Toxic
- Activity [8]: Active

Source: ChEMBL document CHEMBL5370524, “Design and synthesis of a novel class of PDE4 inhibitors with antioxidant properties as bifunctional agents for the potential treatment of COPD” (Eur J Med Chem, 2023)
